Measured values as given in article PMC6753139, “TRIM66 reads unmodified H3R2K4 and H3K56ac to respond to DNA damage in embryonic stem cells” (Nature Communications, 2019).
Where a chain is given by its changes, count along the chain named.

Assays:
[1] = target: T1, TRIM66 965-1160 D971A (Homo sapiens, UniProt O15016, D1106A); experiment: ITC, point mutant; details: 25 °C, pH 7.5, Weak binding = ITC curves cannot be fitted reliably
T1 construct: GST (N, cleaved yes); made in house; host or cells: Escherichia coli BL21 (DE3)
T1 sequence (O15016 1100-1295 D1106A): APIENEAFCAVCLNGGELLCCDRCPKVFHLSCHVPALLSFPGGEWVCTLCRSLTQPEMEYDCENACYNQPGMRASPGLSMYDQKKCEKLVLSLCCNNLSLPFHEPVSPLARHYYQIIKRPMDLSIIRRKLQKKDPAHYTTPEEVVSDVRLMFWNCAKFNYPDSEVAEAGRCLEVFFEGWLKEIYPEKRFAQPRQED
Method: (§1) We further investigated the role of the TRIM66 PHD-Bromodomain in safeguarding the genome. We first introduced a series of single amino acid mutations to the PHD domain at interaction interface and then performed corresponding ITC assays.
(§2) The calorimetric experiments were performed at 25 °C using a MicroCal PEAQ-ITC. The proteins were dialyzed using a buffer containing 20 mM Tris and 100 mM NaCl at pH 7.5. Lyophilized peptides were dissolved in the same buffer and adjusted to pH 7.5 prior to use. Peptide concentrations were estimated from the quantitative NMR experiments[73],[74]. ITC measurements were performed via injection of 0.7–4 mM peptide into a cell containing 0.12 mM TRIM24-PHD-Bromo, 0.05 mM TRIM33 PHD-Bromo, and 0.05 or 0.11–0.15 mM TRIM66-PHD-Bromo (or its mutants). The ITC data were subsequently analyzed using the MicroCal PEAQ-ITC analysis software.

[2] = target: T2, TRIM66 965-1160 D986A (Homo sapiens, UniProt O15016, D1121A); experiment: ITC, point mutant; details: 25 °C, pH 7.5, Weak binding = ITC curves cannot be fitted reliably
T2 construct: GST (N, cleaved yes); made in house; host or cells: Escherichia coli BL21 (DE3)
T2 sequence (O15016 1100-1295 D1121A): T1 sequence (O15016 1100-1295 D1106A) with A7D, D22A
Method: as §1, §2

[3] = target: T3, TRIM66-MUT968-1160 (Homo sapiens, UniProt O15016, C1161S/C1165S/C1270S/I1224T/L1137T/M1171K/V1273N/Y1166H); experiment: ITC, crystallization mutant protein; assay type: binding; details: 25 °C, 20 mM Tris, 100 mM NaCl, pH 7.5, single measurement
T3 construct: contained residues 968 to 1160 with eight mutated residues; GST (N, cleaved yes); made in house; host or cells: Escherichia coli BL21 (DE3)
T3 sequence (O15016 1103-1295 L1137T/C1161S/C1165S/Y1166H/M1171K/I1224T/C1270S/V1273N): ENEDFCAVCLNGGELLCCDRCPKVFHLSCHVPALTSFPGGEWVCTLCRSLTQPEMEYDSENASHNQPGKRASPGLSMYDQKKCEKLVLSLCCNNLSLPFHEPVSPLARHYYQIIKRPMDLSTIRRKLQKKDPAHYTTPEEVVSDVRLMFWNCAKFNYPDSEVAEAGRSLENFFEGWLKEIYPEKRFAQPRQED
Method: The mutant protein of the TRIM66 PHD-Bromodomain used for the crystallographic study contained residues 968 to 1160 with eight mutated residues (L1002T, C1026S, C1030S, Y1031H, M1036K, I1089T, C1135S, and V1138N). The mutant protein was dialyzed using a buffer containing 20 mM Tris, 100 mM NaCl, and 5 mM DTT at pH 7.5 prior to the crystallographic study. The H3_1-12 peptide was dissolved in the same buffer and adjusted to pH 7.5 with a final concentration of 20 mM. Crystals of the free-state TRIM66-PHD-Bromo mutant were obtained by mixing 8 mg ml^−1 protein with an equal volume of crystallization buffer (30% w/v 5000 MME, 100 mM Tris base/hydrochloric acid pH 8.0, and 200 mM lithium sulfate) using the hanging drop vapor diffusion method at 20 °C. […]
The calorimetric experiments were performed at 25 °C using a MicroCal PEAQ-ITC. […] Peptide concentrations were estimated from the quantitative NMR experiments[73],[74]. […] The ITC data were subsequently analyzed using the MicroCal PEAQ-ITC analysis software. […]
combinational manner (Fig. 1d). To further figure out the binding mode between the TRIM66 PHD-Bromodomain and the united H3(1-15)-(48-57) K56ac peptide, we performed a NMR titration experiment and carefully analyzed the linewidth changes of TRIM66 -GSGS968-1160 (this protein is […]

With C[C@H](N)C(=O)N[C@@H](CCCNC(=N)N)C(=O)N[C@H](C(=O)N[C@@H](CCCCN)C(=O)N[C@@H](CCC(N)=O)C(=O)N[C@H](C(=O)N[C@@H](C)C(=O)N[C@@H](CCCNC(=N)N)C(=O)N[C@@H](CCCCN)C(=O)N[C@@H](CO)C(=O)N[C@H](C(=O)NCC(=O)O)[C@@H](C)O)[C@@H](C)O)[C@@H](C)O [H3_1-12] the KD [1] was “Weak binding”, the KD [2] was “Weak binding” and the Kd [3] was 19 ± 0.76 µM.
